# From article PMC9311059, “P‐Glycoprotein and Breast Cancer Resistance Protein Transporter Inhibition by Cyclosporine and Quinidine on the Pharmacokinetics of Oral Rimegepant in Healthy Subjects” (Clinical Pharmacology in Drug Development, 2022)
# Several values for one entry are separate records, joined by “and”; a condition that tells them apart may be missing. Identical values can stand only once. Like-named read-outs stand apart in the source and are kept apart here.
# How the values were obtained:
# [1] = Part 2: pharmacokinetics of rimegepant 75 mg ODT alone or coadministered with quinidine 600 mg, 2-way crossover; format: in vivo, human; settings: for AUC / Cmax: po, 75 mg; for Tmax: read-out: tmax, median (range)
# Protocol: This phase 1, open‐label, randomized, single‐dose, 2‐way crossover, 2‐part, drug‐drug interaction study was conducted at a single center (Syneos Health, Québec, Canada). Subjects were screened within 28 days preceding administration of study medication. In part 1, fasted subjects were randomly assigned to a single dose of rimegepant 75 mg ODT or a single dose of rimegepant 75 mg ODT coadministered with cyclosporine 200 mg (2 × 100‐mg capsules). […] Following the completion of part 1, an interim PK analysis and review of data were performed. […] In part 2, fasted subjects were randomly assigned to a single dose of rimegepant 75 mg ODT or a single dose of rimegepant 75 mg ODT coadministered with quinidine 600 mg (2 × 300‐mg tablets).
# In part 1, subjects received 1 of the following treatments under fasting conditions: 1 oral dose of rimegepant 75 mg ODT (Catalent Pharma Solutions, Swindon, UK) or 1 oral dose of rimegepant 75 mg ODT coadministered with cyclosporine 200 mg (Novartis Pharmaceuticals Canada Inc., Dorval, Quebec, Canada). In part 2, subjects received 1 of the following treatments under fasting conditions: 1 oral dose of rimegepant 75 mg ODT alone or 1 oral dose of rimegepant 75 mg ODT coadministered with quinidine 600 mg (Sandoz Inc., West Princeton, New Jersey). In parts 1 and 2, the interval between treatments could not exceed 2 minutes.
# For each treatment, subjects were confined from the morning of day −1 until after the 24‐hour postdose blood draw on day 2. Subjects returned for all subsequent blood draws. No food was allowed from at least 10 hours before dosing until at least 4 hours after dosing. Meals were standardized and similar in composition between periods. Except for water given with cyclosporine and quinidine, no fluids were allowed from 1 hour before dosing until 1 hour after dosing. Water was provided ad libitum at all other times. […] When appropriate, subjects were accompanied by a staff member while walking.
# In each period, 20 blood samples for PK assessment were collected at the following time points: before dosing; 5, 10, 20, 30, 40, and 50 minutes after dosing; and 1, 1.5, 2, 2.5, 3, 4, 5, 6, 8, 12, 24 (day 2), 48 (day 3), and 72 (day 4) hours after dosing. […] Plasma samples were assayed for rimegepant using ultra‐performance liquid chromatography with tandem mass spectrometry detection (LC‐MS/MS). The quantifiable range was 10 to 5000 ng/mL. Plasma samples containing human ethylenediaminetetraacetic acid (EDTA) K2 plasma as an anticoagulant were processed using automated protein precipitation before LC‐MS/MS analysis. The internal standard was rimegepant‐^13C2d4. The validation was performed using an API 5000 LC/MS/MS system with Analyst software, version 1.6.3 (SCIEX, Framingham, Massachusetts). The pump flow was isocratic, with a flow rate set at 0.600 mL/min. The column was an Acquity UPLC BEH C18, 50×2.1 mm, 1.7 μm (Waters Corporation, Framingham, Massachusetts), which was maintained at a temperature of 60°C and contained Milli‐Q type water/acetonitrile with ammonium acetate and acetic acid. […] Incurred sample reanalysis was carried out on ≈10% of randomly selected samples.
# The effects of cyclosporine (part 1) or quinidine (part 2) on the single‐dose PK of rimegepant were evaluated using general linear model procedures in SAS (SAS Institute, Cary, North Carolina). In these evaluations, analysis of variance (ANOVA) model was performed on untransformed tmax, terminal elimination rate constant, and t1/2el and on log‐transformed AUC0‐t, AUC0‐inf, and Cmax at the alpha level of .05. The model included treatment, sequence, and period as fixed effects, and subject nested within sequence as a random effect. Intra‐ and intersubject coefficient of variation were estimated.
# [2] = cited from earlier work
# [3] = set-up: method as in unpublished; settings: rimegepant 75 mg with itraconazole 200 mg once daily for 7 consecutive days, healthy adults; ref unpublished; cited from earlier work
# [4] = set-up: method as in unpublished; settings: rimegepant 75 mg with fluconazole 400 mg once daily for 8 consecutive days; ref unpublished; cited from earlier work
# CYP3A4 = test system: CYP3A4; set-up: method as in ref 6, 7 = [6]; 6 PubChem [Internet]. Bethesda (MD): National Library of Medicine (US), National Center for Biotechnology Information; 2004‐. PubChem Compound Summary for CID 51049968, Rimegepant. https://pubchem.ncb || [7]; PMID 32058712; doi:10.1021/acs.jmedchem.9b01810; 7 Dubowchik GM , Conway CM , Xin AW . Blocking the CGRP pathway for acute and preventive treatment of migraine: the evolution of success . J Med Chem . 2020; 63 ( 13 ): 6600 ‐ 6623 . 32058712 10.1021; settings: in vitro, human liver microsomes and recombinant human CYP enzymes; cited from earlier work
# CYP2C9 = test system: CYP2C9; set-up: method as in ref 7 = [7]; PMID 32058712; doi:10.1021/acs.jmedchem.9b01810; 7 Dubowchik GM , Conway CM , Xin AW . Blocking the CGRP pathway for acute and preventive treatment of migraine: the evolution of success . J Med Chem . 2020; 63 ( 13 ): 6600 ‐ 6623 . 32058712 10.1021; settings: implicated in vitro; CYP2C9 allelic variation without significant influence; cited from earlier work
# BCRP = test system: BCRP; set-up: method as in ref 7 = [7]; PMID 32058712; doi:10.1021/acs.jmedchem.9b01810; 7 Dubowchik GM , Conway CM , Xin AW . Blocking the CGRP pathway for acute and preventive treatment of migraine: the evolution of success . J Med Chem . 2020; 63 ( 13 ): 6600 ‐ 6623 . 32058712 10.1021; settings: in vitro; cited from earlier work
# [5] = set-up: method as in PMID 23965396; settings: single and 2‐week multiple daily oral doses up to 600 mg; cited from earlier work
# [6] = by quinidine 600 mg, single dose rimegepant 75 mg ODT, vs rimegepant alone
# [7] = coadministration with quinidine 600 mg, rimegepant 75 mg
compound,measurement,setting,value
N[C@@H]1c2cccnc2[C@H](OC(=O)N2CCC(n3c(=O)[nH]c4ncccc43)CC2)CC[C@H]1c1cccc(F)c1F [Rimegepant],increase in rimegepant AUC0‐inf,[1]; [6],54.8% and 55%
same,increase in rimegepant Cmax,[1]; [6],66.9% and 67%
same,rimegepant AUC0‐inf geometric mean ratio (90% CI) versus rimegepant alone,[1]; [7],1.55 (1.40‐1.72)
same,rimegepant Cmax geometric mean ratio (90% CI) versus rimegepant alone,[1]; [7],1.67 (1.46‐1.91)
same,AUC,"[1]; human, plasma, part 2, rimegepant 75 mg ODT alone, single oral dose, fasted, plasma, N = 12, read-out: AUC0‐inf, geometric least squares mean",4410 ng·h/mL
same,AUC,"[1]; human, plasma, part 2, rimegepant 75 mg ODT alone, single oral dose, fasted, plasma, N = 12, read-out: AUC0‐t, geometric least squares mean",4400 ng·h/mL
same,Cmax,"[1]; human, plasma, part 2, rimegepant 75 mg ODT alone, single oral dose, fasted, plasma, N = 12, read-out: Cmax, geometric least squares mean",797 ng/mL
same,AUC,"[1]; human, plasma, part 2, rimegepant ODT 75 mg alone, single oral dose, N 12, read-out: AUC0‐inf, arithmetic mean (percent coefficient of variation)",4540 ng·h/mL
same,AUC,"[1]; human, plasma, part 2, rimegepant ODT 75 mg alone, single oral dose, N 12, read-out: AUC0‐t, arithmetic mean (percent coefficient of variation)",4520 ng·h/mL
same,Cmax,"[1]; human, plasma, part 2, rimegepant ODT 75 mg alone, single oral dose, N 12, read-out: Cmax, arithmetic mean (percent coefficient of variation)",829 ng/mL
same,Tmax,"[1]; human, plasma, part 2, rimegepant ODT 75 mg alone, single oral dose, N 12",1.5 h
same,half-life,"[1]; human, plasma, part 2, rimegepant ODT 75 mg alone, single oral dose, N 12, read-out: t½el, arithmetic mean (percent coefficient of variation) (converted)",8.56 h
same,Tmax,"[1]; human, plasma, part 2, rimegepant ODT 75 mg coadministered with quinidine 600 mg, single oral dose, N 12",2.8 h
same,"CL/F, arithmetic mean (percent coefficient of variation)","[1]; part 2, rimegepant ODT 75 mg alone, single oral dose, N 12",17.39 (24.68) L/h
same,difference in geometric mean t1/2el between treatments,"[1]; part 2, rimegepant with quinidine vs rimegepant alone",≤ 20%
same,absolute oral bioavailability,[2]; rimegepant ODT,≈ 64%
same,median time to maximum plasma concentration (tmax),"[2]; sublingual administration of rimegepant ODT, fasting conditions",1.5 h
same,increase in rimegepant AUC,[3],400%
same,increase in rimegepant Cmax,[3],40%
same,change in rimegepant Cmax,[4],no change
same,increase in rimegepant AUC,[4],80%
same,metabolising enzyme,CYP3A4,primarily metabolized by CYP3A4
same,role of CYP2C9 in metabolism,CYP2C9,not to be a significant mediator of metabolism in vivo
same,substrate of BCRP transporter,BCRP,substrate
same,tolerability,[5],well tolerated
